Measured values: patent US12599676B2, “Cytotoxic imidazo[1,2-A]pyridine compounds and their use in therapy” (MyricX Pharma Limited, priority 2022, dated 2026)

Columns and labels:
DOHH-2 tumor cells = assay: Subcutaneous xenograft DOHH-2 lymphoma model; format: in vivo, CB17/SCID mice; settings: intraperitoneal dosing (Example 5: 7 or 20 mg/kg; Example 12: 0.7 or 2 mg/kg), QD cycles
Procedure: The in vivo efficacy of certain Example compounds was assessed in a subcutaneous xenograft DOHH-2 Lymphoma Model using 10 female 6-8 week old CB17/SCID Mice. Each mouse was inoculated subcutaneously at the right front region with DOHH-2 tumor cells (5×10^6) in 0.1 ml of PBS mixed with matrigel (1:1 PBS:matrigel) for tumor development. The test compound administration started once the mean tumor size reached approximately 100-150 mm^3.
Compounds were administered either IP (vehicle 10 mM sodium phosphate+0.2% Tween-80 (pH7.4) or orally (vehicle 15 Na2HPO4 buffer (10 mM) (pH 4.5)+0.2% tween 80). Tumor volumes were measured in two dimensions using a caliper, and the volume expressed in mm^3 using the formula: V=(L×W×W)/2, where V is tumor volume, L is tumor length (the longest tumor dimension) and W is tumor width (the longest tumor dimension perpendicular to L).
Mice were dosed with Example 21 orally (12.5 or 25 mg/kg) once a day for 9 consecutive days (FIG. 3). Example 5 was dosed intraperitoneally (7 or 20 mg/kg) in a cycle consisting of administration QD for three days followed by a three day no-dosing period followed by QD dosing for a further three days (FIG. 4). Example 12 was dosed intraperitoneally (0.7 or 2 mg/kg) in a cycle consisting of administration QD for three days followed by a three day no-dosing period followed by QD dosing for a further three days (FIG. 5). In a separate study Example 12 was dosed at […] in a cycle consisting of administration QD for two days followed by either four or six day no-dosing period, and this cycle was repeated three times (FIG. 6).

[1] = tested on: RKO (human colon carcinoma); assay: Cell cytotoxicity CellTiter-Glo, RKO; format: cell-based
Procedure: (§1) Cells were seeded in 96-well microplates and treated with compounds or cisplatin (as a positive control) at 9 increasing concentrations in technical triplicate. […] On day 1, 90 μL of various cell suspensions with the number of cells ranging from 5000-8000 cells/well were seeded into wells of a 96-well plate (Corning). The number of cells to be seeded was previously determined. • 2. All 96-wells plates with cells were placed in an incubator overnight at 37° C. with 5% CO2. • 3. On day 2, cells were observed under a microscope ensuring the cells treated with vehicle control were in good condition. • 4. A dilution series of the test compounds and cisplatin were prepared at 10× the final concentrations required. 10 μL/well of 10× compound solution was added to the corresponding plates. The final volume was 100 μL/well for all the plates. Final DMSO concentration was 0.1%. • 5. On day 5 (after 72 hours of incubation), 50 μL of CTG reagent was added to each well. • 6. Contents were mixed for 5 minutes on an orbital shaker to facilitate cell lysis. • 7. The plate was allowed to incubate at room temperature for 10 minutes to stabilize luminescent signals. […]

[2] = tested on: HT1080 (human fibrosarcoma); assay: Cell cytotoxicity CellTiter-Glo, HT1080; format: cell-based; settings: HT-1080
Procedure: as §1

[3] = tested on: NCI-H1703 (human lung squamous cell carcinoma); assay: Cell cytotoxicity CellTiter-Glo, NCI-H1703; format: cell-based
Procedure: as §1

mouse hepatocytes = assay: Hepatocyte metabolic stability, mouse; format: in vitro ADME
Procedure: Biological Example 6: Rat hepatocyte half life Certain Example compounds and Comparator Compound 1 were tested for metabolic stability in a metabolic assay using mouse- and rat-derived hepatocytes. Compounds having good metabolic stability in the assay are expected to be especially useful as agents for preventing and/or treating cancer, by having a long half-life in human patients.
Frozen pooled rat and mouse hepatocytes obtained from LifeTechnologies were thawed and purified according to the manufacturer's instructions. The test compound (4 mM) in DMSO was diluted with acetonitrile to provide a 100 μM sub-stock then further diluted with pH 7.4 Krebs-Henseleit buffer (supplemented with CaCl2, NaHCO3, HEPES, fructose and glycine) to provide a 2 μM working solution. 25 μL of working solution was incubated at 37° C., treated with 25 μL of rat or mouse hepatocyte suspension (containing 1×10^6 cells/mL) and incubated at 37° C. with 5% CO2 level at 95% relative humidity. Wells were incubated for an appropriate time (0, 15, 30, 45, 60 and 75 min) then quenched with 250 μL of acetonitrile containing reference standards diltiazem, 7-ethoxycoumarin and propranolol). The plates were shaken, sonicated for 5 min then cooled to 4° C. until all sampling was complete. All plates were centrifuged at 4000 rpm for 20 min to pellet the debris. 110 μL supernatant was diluted 110 μL water and quantitated using LC-MS/MS.
A linear regression curve was fitted to a plot of natural logarithm (In) of AUC against time. The T-half (min)=0.693/slope

Compound	tumour volume compared to vehicle (DOHH-2 tumor cells)	IC50 [1] [nM]	IC50 [2] [nM]	IC50 [3] [nM]	mHeps t^1/2 (mouse hepatocytes) [min]
CNCc1cnc2ccc(-c3ccc(F)c(F)c3OCCc3c(C(O)C(C)(C)C)nn(C)c3C)cn12 (single isomer, unassigned) [Example 12, 1-(4-(2-(2,3-difluoro-6-(3-((methylamino)methyl)imidazo[1,2-a]pyridin-6-yl)phenoxy)ethyl)-1,5-dimethyl-1H-pyrazol-3-yl)-2,2-dimethylpropan-1-ol]	significant reduction in tumour volume or reduced growth in tumour volume	–	–	–	–
Cc1c(CCOc2cc(Cl)ccc2-c2ccc3ncc(CCN)n3c2)c(C(=O)N(C)C)nn1C [Comparator Compound 1, 4-(2-{2-[3-(2-aminoethyl)imidazo[1,2-a]pyridin-6-yl]-5-chlorophenoxy}ethyl)-N,N,1,5-tetramethyl-1H-pyrazole-3-carboxamide, reference compound]	–	96	6.4	82	127.68
